According to patent US20170152258A9, “Substituted Pyridopyrazines as Syk Inhibitors” (HUTCHISON MEDIPHARMA LIMITED, priority 2012, published 2017):
Several values for one entry are separate records, joined by “and”; a condition that tells them apart may be missing. Equal entries are not always repeated.

Legend:
[1] = test system: RBL-2H3 cells; experiment: IgE-induced Beta-hexosaminidase secretion in RBL-2H3 cells; assay type: cell-based; details: DNP-BSA stimulation
Method in brief: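 RBL-2H3 cells sensitized overnight with 0.5 ug/ml SPE-7 IgE, washed, preincubated with compound 20 min at 37° C, then stimulated with DNP-BSA (150 ng/mL stock) for 45 min. Released β-hexosaminidase measured on supernatant with 1 mM 4-nitrophenyl N-acetyl-β-D-glucosaminide, pH 4.5, 1.5 hr at 37° C; absorbance 405 nm after carbonate quench.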

[2] = target: Syk kinase (Homo sapiens, UniProt P43405); experiment: SYK Enzymatic Assay (Z-LYTE Tyr 2 peptide); assay type: biochemical; details: 8 concentrations 1 μM down to 0.0003 μM
Method in brief: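 Z-LYTE format using Tyr 2 peptide. After the 1 h room-temperature kinase reaction, development reagent was added for 1 h, then stop reagent. Fluorescence was read at 445 and 520 nm. Compounds were tested at 8 concentrations, 1 μM down to 0.0003 μM (1:3 dilutions).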

[3] = Rattus norvegicus, RBL-2H3, IgE-induced Beta-hexosaminidase secretion

Compound	IC50 [1, 3] [nM]	IC50 [2]	IC50 ([1]; IgE-induced Beta-hexosaminidase secretion) [nM]
CN(C)c1ccc(-c2cc3nccnc3c(OC[C@@H]3CN(C(=O)C(F)F)CCO3)n2)cc1 [Compound 100]	68	31 nM	–
CN(C)c1ccc(-c2cc3nccnc3c(O[C@@H]3CCOC3)n2)cc1Cl [Compound 154]	78	43 nM	–
CNC(=O)N1CCO[C@H](COc2nc(-c3ccc(C(C)(C)C#N)cc3)cc3nccnc23)C1 [Compound 249]	69	42 nM	–
CCN1CCN(c2ccc(-c3cc4nccnc4c(OC[C@@H]4CN(C(=O)C(F)F)CCO4)n3)cc2)CC1 [Compound 17]	56	32 nM	–
COC1CCN(c2ccc(-c3cc4nccnc4c(OC[C@@H]4CN(S(C)(=O)=O)CCO4)n3)cc2)CC1 [Compound 31]	56	17 nM	–
O=C(C(F)F)N1CCO[C@H](COc2nc(-c3ccc(N4CCOCC4)c(F)c3)cc3nccnc23)C1 [Compound 15]	102	96 nM	–
CN(C)c1ccc(-c2cc3nccnc3c(OC[C@@H]3CN(S(=O)(=O)C4CC4)CCO3)n2)cc1 [Compound 90]	61	46 nM	–
CN(CC#N)CCS(=O)(=O)N1CCO[C@H](COc2nc(-c3ccc(N(C)C)cc3)cc3nccnc23)C1 [Compound 104]	127	38 nM	–
COC1CCN(c2ccc(-c3cc4nccnc4c(OC[C@@H]4CN(C(C)=O)CCO4)n3)cc2)CC1 [Compound 48]	136	87 nM	–
CNc1ccc(-c2cc3nccnc3c(OC[C@@H]3CN(C(=O)[C@H]4CCCO4)CCO3)n2)cc1 [Compound 51]	159	94 nM	–
CN(C)c1ccc(-c2cc3nccnc3c(OC[C@@H]3CN(C(=O)C(C)(F)F)CCO3)n2)cc1 [Compound 172]	55	50 nM	–
CN(C)c1ccc(-c2cc3nccnc3c(OC[C@@H]3CN(S(C)(=O)=O)CCO3)n2)cc1Cl [Compound 108]	52	19 nM	–
CCC(O)(CC)c1ccc(-c2cc3nccnc3c(OC[C@@H]3CN(S(N)(=O)=O)CCO3)n2)cc1 [Compound 283]	248	44 nM	–
CN(C)c1ccc(-c2cc3nccnc3c(OC[C@H]3CNC(=O)C3)n2)cc1 [Compound 232]	56	67 nM	–
CCN(CC)c1ccc(-c2cc3nccnc3c(OC[C@@H]3CN(S(C)(=O)=O)CCO3)n2)cc1 [Compound 119]	34	16 nM	–
COCCN1CCC(c2ccc(-c3cc4nccnc4c(OC[C@@H]4CN(S(C)(=O)=O)CCO4)n3)cc2)CC1 [Compound 59]	117	30 nM	–
CN1CCc2cc(-c3cc4nccnc4c(OC[C@@H]4CN(S(N)(=O)=O)CCO4)n3)ccc21 [Compound 215]	40	19 nM	–
CS(=O)(=O)N1CCN(c2ccc(-c3cc4nccnc4c(OC[C@@H]4CN(S(C)(=O)=O)CCO4)n3)cc2)CC1 [Compound 26]	113	18 nM	–
CN(C)c1ccc(-c2cc3nccnc3c(OC[C@@H]3CN(C(=O)CO)CCO3)n2)cc1 [Compound 173]	54	32 nM	–
Cc1cc(-c2cc3nccnc3c(OC[C@@H]3CN(S(C)(=O)=O)CCO3)n2)ccc1N(C)C [Compound 134]	15	3 nM	–
CCS(=O)(=O)N1CCC(c2ccc(-c3cc4nccnc4c(OC[C@@H]4CN(C(C)=O)CCO4)n3)cc2)CC1 [Compound 23]	109	62 nM	–
Cc1cc(-c2cc3nccnc3c(OC[C@@H]3CNC(=O)C3)n2)ccc1N1CCOCC1 [Compound 224]	103	48 nM	–
CC(C)(C#N)c1ccc(-c2cc3nccnc3c(OCC3CN(S(N)(=O)=O)CCO3)n2)cc1 (stereo not drawn) [Compound 250]	112	28 nM	–
CC(=O)N1CCO[C@H](COc2nc(-c3ccc(N4CCOCC4)cc3)cc3nccnc23)C1 [Compound 24]	127	76 nM	–
CCC(O)(CC)c1ccc(-c2cc3nccnc3c(OC[C@@H]3CN(S(C)(=O)=O)CCO3)n2)cc1 [Compound 279]	87	35 nM	–

Compound	IC50 [1, 3] [nM]	IC50 [2]	IC50 ([1]; IgE-induced Beta-hexosaminidase secretion) [nM]
COC(C)(C)c1ccc(-c2cc3nccnc3c(OC[C@@H]3CN(C(C)=O)CCO3)n2)cc1 [Compound 269]	88	91 nM	–
NC(=O)N1CCO[C@H](COc2nc(-c3ccc(N4CCOCC4)cc3)cc3nccnc23)C1 [Compound 63]	342	37 nM	–
CN(C)c1ccc(-c2cc3nccnc3c(OC[C@@H]3CN(C(=O)CCC#N)CCO3)n2)cc1 [Compound 77]	202	85 nM	–
CC1CN(c2ccc(-c3cc4nccnc4c(OC[C@@H]4CN(S(C)(=O)=O)CCO4)n3)cc2)CCO1 (stereo partly drawn) [Compound 18]	62	23 nM	–
CS(=O)(=O)N1CCC(c2ccc(-c3cc4nccnc4c(O[C@@H]4CCOC4)n3)cc2)CC1 [Compound 124]	45	33 nM	–
CN1CCc2cc(-c3cc4nccnc4c(OC[C@@H]4CN(C(N)=O)CCO4)n3)ccc21 [Compound 216]	122	49 nM	–
CC(=O)N1CCN(c2ccc(-c3cc4nccnc4c(O[C@@H]4CCCOC4)n3)cc2)CC1 [Compound 177]	79	91 nM	–
CC(=O)N1CCO[C@H](COc2nc(-c3ccc(N(C)C)c(Cl)c3)cc3nccnc23)C1 [Compound 140]	31	52 nM	–
CNS(=O)(=O)N1CCO[C@H](COc2nc(-c3ccc(N(C)C)cc3)cc3nccnc23)C1 [Compound 211]	78	58 nM	–
CC(C)c1ccc(-c2cc3nccnc3c(OC[C@@H]3CN(S(C)(=O)=O)CCO3)n2)cc1 [Compound 181]	57	91 nM and 68 nM	69
CC(C)(C)c1ccc(-c2cc3nccnc3c(OC[C@@H]3CN(C(N)=O)CCO3)n2)cc1 [Compound 255]	97	27 nM	–
C[C@@H](O)C(=O)N1CCO[C@H](COc2nc(-c3ccc(N(C)C)cc3)cc3nccnc23)C1 [Compound 196]	128	67 nM	–
CNC(=O)COc1ccc(-c2cc3nccnc3c(OC[C@@H]3CN(S(C)(=O)=O)CCO3)n2)cc1 [Compound 129]	230	50 nM	–
CC(C)(C)c1ccc(-c2cc3nccnc3c(OC[C@@H]3CN(S(N)(=O)=O)CCO3)n2)cc1 [Compound 257]	160	63 nM	–
CCC(O)(CC)c1ccc(-c2cc3nccnc3c(OC[C@@H]3CN(C(C)=O)CCO3)n2)cc1 [Compound 270]	185	179 nM	–
CNS(=O)(=O)N1CCOC(COc2nc(-c3ccc(C(C)(C)O)cc3)cc3nccnc23)C1 (stereo not drawn) [Compound 262]	269	79 nM	–
COc1ccc(-c2cc3nccnc3c(OC[C@@H]3CN(S(N)(=O)=O)CCO3)n2)cc1OC [Compound 292, (S)-2-(((7-(3,4-dimethoxyphenyl)pyrido[3,4-b]pyrazin-5-yl)oxy)methyl)morpholine-4-sulfonamide]	232	14 nM	–
CS(=O)(=O)N1CCO[C@H](COc2nc(-c3ccc4c(c3)OCCO4)cc3nccnc23)C1 [Compound 109]	131	97 nM	–
COc1ccc(-c2cc3nccnc3c(OC[C@@H]3CN(C(N)=O)CCO3)n2)cc1OC [Compound 142, (S)-2-(((7-(3,4-dimethoxyphenyl)pyrido[3,4-b]pyrazin-5-yl)oxy)methyl)morpholine-4-carboxamide]	950	68 nM	–
CNS(=O)(=O)N1CCO[C@H](COc2nc(-c3ccc(N4CCOCC4)cc3)cc3nccnc23)C1 [Compound 55]	144	65 nM	–
CNS(=O)(=O)N1CCOC(COc2nc(-c3ccc(C(C)(C)C#N)cc3)cc3nccnc23)C1 (stereo not drawn) [Compound 251]	83	75 nM	–
CN(C)c1ccc(-c2cc3nccnc3c(OC[C@@H]3CN(S(=O)(=O)c4cccnc4)CCO3)n2)cc1 [Compound 92]	72	76 nM	–
CN(C)c1ccc(-c2cc3nccnc3c(OC[C@@H]3CN(S(=O)(=O)CCN4CC[C@H](O)C4)CCO3)n2)cc1 [Compound 103]	325	32 nM	–
CC(=O)N1CCO[C@H](COc2nc(-c3ccc(C(C)(C)O)cc3)cc3nccnc23)C1 [Compound 265]	166	88 nM	–
